Test results as given in US6821326B2 (Arch Chemicals, Inc., priority 2002, dated 2004).

Columns and labels:
[1] = rats, powder, compared with zinc pyrithione powder; cited from earlier work
[2] = Particle size analysis on a Horiba Laser light scattering particle size analyzer; assay type: physicochemical; settings: commercial powder before low shear mixing into xylene dispersion (Comparative Example A)
Experimental: As a comparison to the dispersions of the present invention, 13 grams “LAROFLEX MP25” polymer resin (vinyl chloride-isobutyl vinyl ether copolymer, a product of BASF Corporation, Charlotte, N.C.) was dissolved into 832 grams of xylene. […] The mixture was stirred at low speed (1000 rpm) and with low shear for 0.5 hours to provide adequate mixing until a homogenous mixture was achieved.
The diluted sample was then run though a Mini Zeta Netzsch mill for 150 minutes at 2000 rpm.

## On1ccccc1=S.On1ccccc1=S.[Cu] [Copper Pyrithione, copper pyrithione]
[1]
  acute inhalation toxicity: more toxic than zinc pyrithione powder
[2]
  Mean Particle Size: 3.09 Microns
  Median Particle Size: 3.40 Microns
